The structures appear in SMILES notation. Where a name gives a salt, the structure may show the parent alone.

Assay [1] deals with T1, human MCH receptor 1 (MCHR1) (Homo sapiens, UniProt Q99705).
T1 construct: expressed in transfected cells; host or cells: CHO cell clone 57 (membrane fraction)
In words: human MCH receptor 1 (MCHR1) competitive binding assay with [125I]-MCH(4-19). The conditions noted are these: test compound 0.1 μM, human MCHR1-expressing CHO cell membrane fraction, read-out: Binding inhibition rate % (0.1 μM). The method in brief:
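Percent binding inhibition by 0.1 μM test compound, corrected for nonspecific binding defined with unlabeled MCH(1-19), is read by scintillation after filtration onto PEI-treated GF/C filters. The reaction runs 1 hr at room temperature with [125I]-MCH(4-19) and human MCHR1-CHO cell membranes in Tris-HCl pH 7.5 buffer containing EDTA and protease inhibitors.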

The target in the next assay is T2, human MCHR1 (Homo sapiens, UniProt Q99705).
T2 construct: expressed in transfected cells; host or cells: CHO dhfr- cells, clone #4
T2 sequence (Q99705 whole entry): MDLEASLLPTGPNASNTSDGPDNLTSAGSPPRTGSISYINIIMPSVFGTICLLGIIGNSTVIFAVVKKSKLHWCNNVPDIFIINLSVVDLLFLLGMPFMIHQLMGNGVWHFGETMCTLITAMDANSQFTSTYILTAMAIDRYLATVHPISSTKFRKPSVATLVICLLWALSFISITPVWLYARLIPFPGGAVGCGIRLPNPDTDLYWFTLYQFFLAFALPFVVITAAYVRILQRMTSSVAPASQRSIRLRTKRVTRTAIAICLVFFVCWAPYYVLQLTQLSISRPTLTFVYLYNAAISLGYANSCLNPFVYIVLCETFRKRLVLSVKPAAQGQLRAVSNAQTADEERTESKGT
Kind of assay: MCH receptor 1 antagonistic activity, Ca2+ mobilization assay. In kind it is cell-based. Particulars: CHO, test compound 0.1 μM; human MCHR1-expressing CHO cells (clone #4); ligand MCH(4-19) 2 nM; read-out: Inhibitory rate % (0.1 μM). The method, boiled down: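 CHO dhfr− cells stably expressing human MCHR1 (clone #4) were used in a fluorometric Ca2+ mobilization assay. Test compounds were run at 0.1 μM, with antagonism expressed as percent inhibition.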

In assay [2] the test system is male diet-induced obese F344/Jcl rats. In words: Anorectic effect in male diet-induced obese F344/Jcl rats. In kind it is in vivo, rat. The conditions noted are these: 5 mg/mL suspension at 2 mL/kg, two administrations, food intake for 2 days vs control group; for inhibition in vivo at 5000 µg/mL, 10 mg/kg: Rattus norvegicus, po, 48 h, read-out: Food intake suppression rate (%). How it is done:
Evaluation of Anorectic Effect Using Male Diet-Induced Obese F344/Jcl Rats
Male diet-induced obese F344/Jcl rats (44-50 weeks old) fed with a high-fat diet (D12451: Research Diets) from 5 weeks old were used. From before the start of experiment, the rats were singly housed, given a powder high-fat diet (D12451M: Research Diets), and habituated to oral administration with tap water. The food intake from the evening of the day before the start of experiment to the next morning was measured, and the rats were grouped based on both the food intake and the body weight of the previous day. In the evening of the day of the start of experiment and the next day, 0.5% methylcellulose solution was orally administered to the control group, and 0.5% methylcellulose suspension (5 mg/mL) of the test compound was orally administered to the compound administration group at 2 mL/kg (6 per group for both control group and compound administration group). The food intake for 2 days from the initial administration was measured. The food intake inhibition rate of each compound administration group to the control group was calculated.

T1 sequence (Q99705 whole entry): as above

On to `Cn1c(C2CC2)nc2ccc(-n3ccc(OCc4ccccc4)cc3=O)cc21` [Example 9, 4-(Benzyloxy)-1-(2-cyclopropyl-1-methyl-1H-benzimidazol-6-yl)pyridin-2(1H)-one], for which the inhibition at 0.1 µM worked out at 72% in assay [1] and 100% on human MCHR1. Besides, the inhibition in vivo at 5000 µg/mL, 10 mg/kg in assay [2] was determined as 14.8%.
For `Cn1c(C2CC2)nc2ccc(-n3ccc(OCc4ccc(Cl)cc4)cc3=O)cc21` [Example 10, 4-((4-Chlorobenzyl)oxy)-1-(2-cyclopropyl-1-methyl-1H-benzimidazol-6-yl)pyridin-2(1H)-one] the same measures were 89%, 99% and 58.1%.
The matching figures for `Cn1c(CC2CC2)nc2ccc(-n3ccc(OCc4ccc(F)cc4)cc3=O)cc21` [Example 15, 1-(2-(Cyclopropylmethyl)-1-methyl-1H-benzimidazol-6-yl)-4-((4-fluorobenzyl)oxy)pyridin-2(1H)-one]: 53%, 90% and 45.4%.
`CCc1nc2ccc(-n3ccc(OCc4ccc(Cl)s4)cc3=O)cc2n1C` [Example 49, 4-[(5-Chlorothiophen-2-yl)methoxy]-1-(2-ethyl-1-methyl-1H-benzimidazol-6-yl)pyridin-2(1H)-one]: the inhibition in vivo at 5000 µg/mL, 10 mg/kg in assay [2] worked out at 29.3%.
On to `CCc1nc2ccc(-n3ccc(OCc4csc(Cl)c4)cc3=O)cc2n1C` [Example 51, 4-[(5-Chlorothiophen-3-yl)methoxy]-1-(2-ethyl-1-methyl-1H-benzimidazol-6-yl)pyridin-2(1H)-one], for which, in assay [2], the inhibition in vivo at 5000 µg/mL, 10 mg/kg stood at 50%.
For the compound `Cn1c(C2CC2)nc2ccc(-n3ccc(OCc4ccc(Cl)c(F)c4)cc3=O)cc21` [Example 131, 4-((4-Chloro-3-fluorobenzyl)oxy)-1-(2-cyclopropyl-1-methyl-1H-benzimidazol-6-yl)pyridin-2(1H)-one], the inhibition at 0.1 µM in assay [1] stood at 78%. Moreover, in assay [2], the inhibition in vivo at 5000 µg/mL, 10 mg/kg was 44.3%.
`Cc1c(C2CC2)nc2ccc(-n3ccc(OCc4ccc(C(F)(F)F)s4)cc3=O)cn12` [Example 158, 1-(2-Cyclopropyl-3-methylimidazo[1,2-a]pyridin-6-yl)-4-((5-(trifluoromethyl)thiophen-2-yl)methoxy)pyridin-2(1H)-one]: the inhibition at 0.1 µM in assay [1] was 83%; on human MCHR1 it was 105%. Also, the inhibition in vivo at 5000 µg/mL, 10 mg/kg in assay [2] was determined as 20.3%.
Consider `Cc1c(C2CC2)nc2ccc(-n3ccc(OCc4ccc(C(F)(F)F)s4)cc3=O)cn12` [Example 160, 1-(2-Cyclopropyl-3-methylimidazo[1,2-a]pyridin-6-yl)-4-((5-(trifluoromethyl)thiophen-2-yl)methoxy)pyridin-2(1H)-one hydrochloride], for which the “Food intake suppression rate (%)” value in assay [2] (oral, hydrochloride) is recorded as 22.7%.
Consider `Cn1c(C2CC2)nc2ccc(-n3ccc(OCc4ccc(C(F)(F)F)s4)cc3=O)cc21` [Example 242, 1-(2-Cyclopropyl-1-methyl-1H-benzimidazol-6-yl)-4-((5-(trifluoromethyl)-2-thienyl)methoxy)pyridin-2(1H)-one hydrochloride], for which the inhibition in vivo at 5000 µg/mL, 10 mg/kg in assay [2] amounted to 17.4%.
On to `Cn1c(C2CC2)nc2ccc(-n3ccc(OCc4csc(C(F)(F)F)c4)cc3=O)cc21` [Example 252, 1-(2-Cyclopropyl-1-methyl-1H-benzimidazol-6-yl)-4-((5-(trifluoromethyl)-3-thienyl)methoxy)pyridin-2(1H)-one], for which the inhibition at 0.1 µM in assay [1] was 66%; at human MCHR1 it was 85%. Also, the inhibition in vivo at 5000 µg/mL, 10 mg/kg in assay [2] was found to be 30.8%.
The matching figures for `Cn1c(C2CC2)nc2ccc(-n3ccc(OCc4csc(C(F)(F)F)n4)cc3=O)cc21` [Example 266, 1-(2-Cyclopropyl-1-methyl-1H-benzimidazol-6-yl)-4-((2-(trifluoromethyl)-1,3-thiazol-4-yl)methoxy)pyridin-2(1H)-one]: 50%, 73% and 20%.
As for `Cn1c(C2CC2)nc2ccc(-n3ccc(OCc4cc(C(F)(F)F)cs4)cc3=O)cc21` [Example 275, 1-(2-Cyclopropyl-1-methyl-1H-benzimidazol-6-yl)-4-((4-(trifluoromethyl)-2-thienyl)methoxy)pyridin-2(1H)-one], the inhibition at 0.1 µM in assay [1] turned out to be 75%; on human MCHR1, 89%. The inhibition in vivo at 5000 µg/mL, 10 mg/kg in assay [2] was determined as 50.1%.
The matching figures for `CCc1nc2ccc(-n3ccc(OCc4cc(C(F)(F)F)cs4)cc3=O)cc2n1C` [Example 276, 1-(2-Ethyl-1-methyl-1H-benzimidazol-6-yl)-4-((4-(trifluoromethyl)-2-thienyl)methoxy)pyridin-2(1H)-one]: 71%, 97% and 57.9%.
In the case of `Cn1c(C2CC2)nc2ccc(-n3ccc(OCc4nc(C(F)F)cs4)cc3=O)cc21` [Example 283, 1-(2-Cyclopropyl-1-methyl-1H-benzimidazol-6-yl)-4-((4-(difluoromethyl)-1,3-thiazol-2-yl)methoxy)pyridin-2(1H)-one], the inhibition at 0.1 µM in assay [1] turned out to be 56%; on human MCHR1 it was 99%.
The matching figures for `CCc1nc2ccc(-n3ccc(OCc4nc(C(F)F)cs4)cc3=O)cc2n1C` [Example 284, 4-((4-(Difluoromethyl)-1,3-thiazol-2-yl)methoxy)-1-(2-ethyl-1-methyl-1H-benzimidazol-6-yl)pyridin-2(1H)-one]: 37% and 83%.
The matching figures for `Cn1c(C2CC2)nc2ccc(-n3ccc(OCc4csc(C5CC5)n4)cc3=O)cc21` [Example 285, 1-(2-Cyclopropyl-1-methyl-1H-benzimidazol-6-yl)-4-((2-cyclopropyl-1,3-thiazol-4-yl)methoxy)pyridin-2(1H)-one]: 36% and 58%.
For `Cc1nc2ccc(-n3ccc(OCc4cc(C(F)(F)F)cs4)cc3=O)cc2n1C` [Example 286, 1-(1,2-Dimethyl-1H-benzimidazol-6-yl)-4-((4-(trifluoromethyl)thiophen-2-yl)methoxy)pyridin-2(1H)-one], the inhibition at 0.1 µM in assay [1] was 58%; at human MCHR1, 100%.
For `Cn1c(C2CC2)nc2ccc(-n3ccc(OCc4csc(C(F)F)n4)cc3=O)cc21` [Example 287, 1-(2-Cyclopropyl-1-methyl-1H-benzimidazol-6-yl)-4-((2-(difluoromethyl)-1,3-thiazol-4-yl)methoxy)pyridin-2(^1H)-one] the same measures were 47% and 95%.
For `CCc1nc2ccc(-n3ccc(OCc4csc(C(F)F)n4)cc3=O)cc2n1C` [Example 288, 4-((2-(Difluoromethyl)-1,3-thiazol-4-yl)methoxy)-1-(2-ethyl-1-methyl-1H-benzimidazol-6-yl)pyridin-2(1H)-one] the same measures were 40% and 87%.
The matching figures for `Cc1nc2ccc(-n3ccc(OCc4ccccc4)cc3=O)cc2n1C` [Example 289, 4-(Benzyloxy)-1-(1,2-dimethyl-1H-benzimidazol-6-yl)pyridin-2(1H)-one]: 48% and 100%.
Turning to `Cc1nc2ccc(-n3ccc(OCc4csc(C(F)(F)F)c4)cc3=O)cc2n1C` [Example 290, 1-(1,2-Dimethyl-1H-benzimidazol-6-yl)-4-((5-(trifluoromethyl)thiophen-3-yl)methoxy)pyridin-2(1H)-one], the inhibition at 0.1 µM in assay [1] was determined as 77%; on human MCHR1 it was 90%. Also, the inhibition in vivo at 5000 µg/mL, 10 mg/kg in assay [2] is 43.5%.
Regarding `Cc1c(C2CC2)nc2ccc(-n3ccc(OCc4ccc(F)cn4)cc3=O)cn12` [Example 291, 1-(2-Cyclopropyl-3-methylimidazo[1,2-a]pyridin-6-yl)-4-((5-fluoropyridin-2-yl)methoxy)pyridin-2(1H)-one hydrochloride], the values for the inhibition at 0.1 µM (in assay [1]; at human MCHR1) were 47% and 98%, respectively.

These data come from patent US9365540B2, “Benzimidazole derivatives as MCH receptor antagonists” (Takeda Pharmaceutical Company Limited, priority 2012, dated 2016).
